Results: US20060204443A1, “Methods for tumor treatment using dendrimer conjugates” (The Government of the USA as represented by the Secretary …, priority 2005, published 2006)
“Also recorded” adds a separate entry of the source.

Assays:
[1] = tested on: Draining Lymph Nodes (LNs) from the Normal Breast Tissue; experiment: Dynamic micro-MR mammo-lymphangiography after injection into normal mammary gland (Example 1); type: in vivo, mice; details: athymic nu/nu mice, 0.15 μmol Gd into the mammary gland; GPDM imaged at 12, 24, 36 min, then PAMAM-G6
Description: Mice were anesthetized with 1.15 mg sodium pentobarbital (Dainabot, Osaka, Japan), and then injected with 0.15-0.24 μmol Gd/5-8 μL of the PAMAM-G6 contrast agent into normal mammary glands or mammary tissue surrounding a tumor (peritumorally). Dynamic micro-MR images were obtained using a 1.5-Tesla superconductive magnet unit (Signa LX, General Electric Medical System, Milwaukee, Wis.) with a birdcage type coil of 3 cm diameter fixed by a custom made coil holder. Single and double “breast coils” used for imaging breasts in humans are commercially available, for example, from GE Medical Systems (Milwaukee, Wis.) and are routinely available in outpatient MRI centers. The mice were wrapped with gauze to stabilize their body temperature and were placed at the center of the coils.
In order to evaluate the lymphatic drainage from the normal mammary gland of either Balb/c mice (n=5) or athymic nu/nu mice (n=5), 3D-fast spoiled gradient echo (3D-fastSPGR (efgre3d package; Signa Horizon, GE); repetition time/echo time 19.2/7.2 msec; inversion time 47 msec; 31.2 kHz, flip angle 30°, 4 excitations; 36 slice encoding steps; scan time 4 min 49 seconds) with chemical shift fat-suppression was used 6, 12, 18, 24, 30, 36, 42, and 48 min after injection of the contrast agent. The coronal images were reconstructed with 0.6-mm section thickness every 0.3-mm. The field of view was 8×4 cm and the size of the matrix was 512×256. The slice data were processed into 3D images using the maximum intensity projection (MIP) method with the same window and level (window 3500 and level 2100) (Advantage Windows, General Electric Medical System). After imaging, the mice were sacrificed by carbon dioxide inhalation.
Athymic nu/nu mice (n=4) were anesthetized and injected with 0.15 μmol Gd of GPDM into the mammary gland, and images were taken 12, 24, and 36 min after injection. Following these three images, these mice were subsequently injected with 0.15 μmol Gd of PAMAM-G6 contrast agent in the mammary gland, and images were taken at 12 and 24 min post-injection of the PAMAM-G6 contrast agent (at 48 and 60 min post-injection of GPDM).

[2] = Tokumitsu et al. 2000; cited from earlier work
[3] = tested on: axillary lymph nodes and their lymphatic vessels; experiment: Dynamic 3D-MR lymphangiography, effect of contrast agent size (Example 4); type: in vivo, athymic nu/nu mice; details: triple dose, 3 min post-injection (data not shown)
[4] = tested on: deep lymphatic system (lymph nodes, thoracic duct); experiment: Whole-body dynamic 3D-micro-MRL after intracutaneous injection, normal mice (Examples 2, 3); type: in vivo; details: for Number of Mice in Which the Thoracic Duct was Visualized/Number of Mice Examined: Normal Mice, 0.1 μmolGd intracutaneously
Description: The mice were anesthetized with 1.15 mg sodium pentobarbital (Dainabot, Osaka, Japan) by intraperitoneal injection, and then injected intracutaneously with 0.1 μmolGd of PAMAM-G8, DAB-G5, PAMAM-G4, Gadomer-17, or GPDM into four middle phalanges in all four extremities. Dynamic micro-MR images were obtained using a 1.5-Tesla superconductive magnet unit (Signa LX, General Electric Medical System, Milwaukee, Wis.) with a round birdcage type coil of 3 cm diameter fixed by a custom-made coil holder. Four to eight female mice (7 weeks old, 18-21 g body weight) in each group were used and each contrast agent was prepared at least three separate times for these imaging studies. The mice were wrapped with gauze to stabilize their body temperature and were placed at the center of the coils.
A 3D-fast spoiled gradient echo (3D-fastSPGR (efgre3d package; Signa Horizon, GE); repetition time/echo time 28.5/7.9 msec; inversion time 65 msec; 31.2 kHz, flip angle 30°, four excitations; 40 slice-encoding steps; scan time 7 min 36 seconds) with chemical shift fat-suppression was used 10, 20, 30, and 45 min after injection of the contrast agents. The coronal images were reconstructed with 0.6-mm section thickness at every 0.3-mm. The field of view was 6×3 cm and the size of the matrix was 512×256. The intensities of the regions of interest (for example, a whole axillary lymph node, and the liver) were measured, and then the time-intensity curves analyzed. The data were expressed as the axillary lymph node-to-muscle and the axillary lymph node-to-liver ratios. The slice data were processed into 3D images using the MIP method with the same window and level (window 3500 and level 2300) (Advantage Windows, General Electric Medical System). Two board-certified radiologists separately read a set of stereo views of 3D-MRL for all studies, and estimated the visualization of the thoracic duct. After imaging, the mice were sacrificed by carbon dioxide inhalation.
In this example, the PAMAM-G8 contrast agent is compared to GPDM. PAMAM-G8 was prepared as described in Example 2, and GPDM was purchased (Schering AG, Berlin, Germany). Animal models, administration of the contrast agents, and 3D-micro-MRL were as described in Example 2.

[5] = tested on: axillary lymph nodes and their lymphatic vessels; experiment: Dynamic 3D-MR lymphangiography, effect of contrast agent size (Example 4); type: in vivo, athymic nu/nu mice
Description: Mice were anesthetized with 1.15 mg sodium pentobarbital (Dainabot, Osaka, Japan) by intraperitoneal injection. Then 0.15 μmolGd/5 μL of all nano-size contrast agents or 0.45 μmolGd/5 μL of Gd-[DTPA]-dimeglumine were injected into normal mammary glands or mammary tissue surrounding a tumor. Dynamic MR images were obtained using a 1.5-Tesla superconductive magnet unit (Signa LX, General Electric Medical System, Milwaukee, Wis.) with a birdcage type coil of 3 cm diameter fixed by a custom-made coil holder. The mice were wrapped with gauze to conserve their body temperature and were placed at the center of the coils.
In order to evaluate the effect of contrast agent molecular size on the ability to visualize the lymphatics and lymph nodes of athymic nu/nu mice, thirty five non-tumor bearing nu/nu mice were divided into seven groups (n=5). The mice were evaluated with 3D-fast spoiled gradient echo (3D-fastSPGR (efgre3d package; Signa Horizon, GE); repetition time/echo time 19.2/7.2 msec; inversion time 47 msec; bandwidth 31.2 kHz, flip angle 30°, 4 excitations; 36 slice encoding steps; scan time 4 minutes 49 seconds) with chemical shift fat-suppression at 6, 12, 18, 24, 30, and 36 minutes post-injection of each contrast agent. The coronal images were reconstructed with 0.6-mm section thickness every 0.3-mm. The field of view was 8×4 cm and the size of the matrix was 512×256. The slice data were processed into 3D images using the maximum intensity projection (MIP) method with the same window and level (window 3500 and level 2100) (Advantage Windows, General Electric Medical System). The enhancement ratio was calculated by taking the average signal intensity in the axillary lymph node and dividing it by the signal intensity in the adjacent muscle.

[6] = mouse, in vivo, listed as Gd-DTPA

In the case of CNC[C@H](O)[C@@H](O)[C@H](O)[C@H](O)CO.CNC[C@H](O)[C@@H](O)[C@H](O)[C@H](O)CO.O=C([O-])CN(CCN(CC(=O)[O-])CC(=O)O)CCN(CC(=O)[O-])CC(=O)O.[Gd+3] [GPDM, gadopentetate dimeglumine, reference compound], the “Visualization of draining lymph nodes and lymphatic vessels (FIG. 5)” value [1] is listed as “not well visualized”, the “Clearance from the body” value [2] is listed as “clear too rapidly from the body” and the “Contrast between target lymph node and surrounding tissue” value [3] is listed as “did not help to achieve good enough contrast”. For the same compound, the “Image enhancement after 45 minutes” value ([4]; Example 2, FIG. 10B) was “Virtually no image enhancement”, the “Visualization of deep lymph nodes” value ([4]; Example 2, normal mice, 10-45 min after injection) was “did not allow most of the lymph nodes to be visualized even at early times” and the “Visualization of deep lymph nodes” value ([4]; Example 3, FIG. 15) was “not with GPDM”. For the same compound, the “Number of Mice in Which the Thoracic Duct was Visualized/Number of Mice Examined” value ([4]; 10 min) was 2/5, the “Number of Mice in Which the Thoracic Duct was Visualized/Number of Mice Examined” value ([4]; 20 min) was 0/5 and the “Number of Mice in Which the Thoracic Duct was Visualized/Number of Mice Examined” value ([4]; 30 min) was 0/5. For the same compound, the “Number of Mice in Which the Thoracic Duct was Visualized/Number of Mice Examined” value ([4]; 45 min) was 0/5, the “Visualization of axillary lymph nodes and their lymphatic vessels” value ([5]; 6-36 minutes post-injection into mammary gland) was “failed to opacify either the lymph nodes or the lymphatic vessels” and the “Signal intensity of adjacent muscle in comparison to G6 and G8” value [5, 6] was “significantly higher than those measured with G6 and G8; also recorded: higher signal in the adjacent muscle”. For the same compound, the “Signal intensity within the axillary lymph nodes in comparison to G6 and G8” value [5, 6] was “lower signal intensities; also recorded: significantly lower signal”.
